# Measured values taken from PMC3968008 (PLoS ONE, 2014).
# “Also recorded” adds a separate entry of the source. Ends that are not written are not given here.
# How the values were obtained:
# NHDFs = NHDFs proliferation, WST-1 assay; assay type: cell-based, human; details: preincubation with Akt inhibitor IV 1 μM (1 hour) or rapamycin 1 nM (2 hours), then SR-0379
# Experimental: HUVECs, NHDFs and NHEKs were purchased from Kurabo (Osaka, Japan). The endothelial cells were maintained in HuMedia EB2 and the fibroblasts were maintained in Medium 106S. Both media were supplemented with 1% fetal bovine serum (FBS) as described previously. The epidermal keratinocytes were maintained in HuMedia KB2. Cells were incubated at 37°C in a humidified atmosphere of 95% air/5% CO2 with exchange of medium every 2 days. HUVECs were cultured in 96-well plates at a density of 10,000 cells/well and incubated for 48 hours at 37°C with AG30/5C or FGF2 (recombinant human FGF basic, R&D systems, Inc., Minneapolis, MN). The proliferation of HUVECs, NHDFs and NHEKs was analyzed using a WST-1 assay (Dojindo, Kumamoto, Japan). Tubule formation assay has recently been developed in which endothelial cells are co-cultured with fibroblasts. […] The tube-like structures were measured in terms of total tube length with the software (Angiogenesis Image Analyzer, Kurabo, Osaka Japan). Cell migration was evaluated using an Oris cell migration assay kit (Platypus Technologies, LLC., Madison, WI) according to the manufacturer's instructions. […] The number of cells that migrated into the detection zone was measured using a plate reader. […] At each time point, the lattices were digitally photographed from a fixed distance, and their areas were calculated using image analysis software. […]
# Penicillium glabrum = assay: MIC, broth microdilution; assay type: cell-based; details: fungus, individual data from two independent experiments
# Experimental: (§1) Antimicrobial activity of the peptides was evaluated against Escherichia coli JCM 5491, Pseudomonas aeruginosa JCM 6119, Staphylococcus aureus JCM2874, Salmonella Typhimurium JCM1652, Acinetobacter baumannii JCM6841, Bacteroides fragilis JCM11019, Fusobacterium nucleatum JCM11025, Penicillium glabrum JCM22534, Fusarium solani JCM11383, Alternaria alternata JCM5800 (RIKEN, A research institution for basic and applied science in Japan), Micrococcus luteus NBRC13867, Bacillus subtilis NBRC3134, Propionibacterium acnes NBRC107605, Trichophyton mentagrophytes NBRC6124, Trichophyton rubrum NBRC9185, Candida krusei NBRC1395 (National Institute of Technology and Evaluation, Tokyo, Japan), Salmonella Enteritidis IID604 (The Institute of Medical Science, The University of Tokyo, Tokyo, Japan). […] Serial two-fold dilutions of peptide were added to 0.1 ml of medium containing each type of bacteria and fungi at concentrations of 0.4×10^4 – 5×10^4 CFU/ml. The plates were incubated at 37°C with vigorous shaking for 24 or 48 hours. The MICs were determined as the lowest concentrations of peptide that inhibited visible bacterial growth.
# Fusarium solani = assay: microbe, parasite or virus in culture; assay type: cell-based; details: Fusarium solani; fungus; broth microdilution; individual data from two independent experiments
# Experimental: (§2) Antimicrobial activity of the peptides was evaluated against Escherichia coli JCM 5491, Pseudomonas aeruginosa JCM 6119, Staphylococcus aureus JCM2874, Salmonella Typhimurium JCM1652, Acinetobacter baumannii JCM6841, Bacteroides fragilis JCM11019, Fusobacterium nucleatum JCM11025, Penicillium glabrum JCM22534, Fusarium solani JCM11383, Alternaria alternata JCM5800 (RIKEN, A research institution for basic and applied science in Japan), Micrococcus luteus NBRC13867, Bacillus subtilis NBRC3134, Propionibacterium acnes NBRC107605, Trichophyton mentagrophytes NBRC6124, Trichophyton rubrum NBRC9185, Candida krusei NBRC1395 (National Institute of Technology and Evaluation, Tokyo, Japan), Salmonella Enteritidis IID604 (The Institute of Medical Science, The University of Tokyo, Tokyo, Japan). Additionally, the clinical isolates (Drug-sensitive/resistant Pseudomonas aeruginosa and Staphylococcus aureus, Osaka University Hospital) and multidrug-resistant Acinetobacter baumannii (ATCC BAA-1605) were used. […] Serial two-fold dilutions of peptide were added to 0.1 ml of medium containing each type of bacteria and fungi at concentrations of 0.4×10^4 – 5×10^4 CFU/ml. The plates were incubated at 37°C with vigorous shaking for 24 or 48 hours. The MICs were determined as the lowest concentrations of peptide that inhibited visible bacterial growth.
# Alternaria alternata = assay: microbe, parasite or virus in culture; assay type: cell-based; details: Alternaria alternata; fungus; broth microdilution; individual data from two independent experiments
# Experimental: as §2
# [1] = tested on: Trichophyton mentagrophytes; assay: microbe, parasite or virus in culture; assay type: cell-based; details: Trichophyton mentagrophytes; fungus; broth microdilution; individual data from two independent experiments
# Experimental: as §2
# Trichophyton rubrum = assay: microbe, parasite or virus in culture; assay type: cell-based; details: Trichophyton rubrum; fungus; broth microdilution; individual data from two independent experiments
# Experimental: as §2
# Candida krusei = assay: microbe, parasite or virus in culture; assay type: cell-based; details: Pichia kudriavzevii; fungus; broth microdilution; individual data from two independent experiments
# Experimental: as §2
# bacteria = assay: Antimicrobial spectrum, bacteria; assay type: cell-based
# Experimental: as §1
# P2X7 = biological target: T1, P2X7 (Homo sapiens, UniProt Q99572); assay: Contribution of P2X7 receptors to the effect of SR-0379; assay type: cell-based; details: data not shown
# T1 construct: we also examined the contribution of P2X7 receptors to the effect of SR-0379; endogenous in cells; probably NHDFs (human dermal fibroblasts, Kurabo)
# T1 sequence (Q99572 whole entry): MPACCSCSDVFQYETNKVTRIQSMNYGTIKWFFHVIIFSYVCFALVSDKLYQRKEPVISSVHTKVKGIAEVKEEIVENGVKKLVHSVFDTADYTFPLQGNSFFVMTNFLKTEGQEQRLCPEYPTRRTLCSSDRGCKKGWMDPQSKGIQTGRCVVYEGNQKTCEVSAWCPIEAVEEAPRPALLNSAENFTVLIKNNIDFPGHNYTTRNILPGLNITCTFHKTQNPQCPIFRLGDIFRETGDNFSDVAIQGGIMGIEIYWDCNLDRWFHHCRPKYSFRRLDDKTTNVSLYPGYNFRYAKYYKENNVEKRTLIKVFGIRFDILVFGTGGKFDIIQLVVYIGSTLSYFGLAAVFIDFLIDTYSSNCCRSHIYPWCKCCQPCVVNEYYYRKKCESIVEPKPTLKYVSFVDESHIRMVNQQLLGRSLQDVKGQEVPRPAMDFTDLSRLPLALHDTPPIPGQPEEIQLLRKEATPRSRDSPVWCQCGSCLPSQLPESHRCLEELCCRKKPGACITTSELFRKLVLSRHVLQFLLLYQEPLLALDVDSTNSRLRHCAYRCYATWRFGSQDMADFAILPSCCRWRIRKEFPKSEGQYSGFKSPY
# Micrococcus luteus = assay: microbe, parasite or virus in culture; assay type: cell-based; details: Micrococcus luteus; aerobe; broth microdilution; individual data from two independent experiments
# Experimental: as §2
# Bacillus subtilis = assay: microbe, parasite or virus in culture; assay type: cell-based; details: Bacillus subtilis; aerobe; broth microdilution; individual data from two independent experiments
# Experimental: as §1
# Salmonella Enteritidis = assay: microbe, parasite or virus in culture; assay type: cell-based; details: Salmonella enterica, ENTERITIDIS; aerobe; broth microdilution; individual data from two independent experiments
# Experimental: as §1
# Salmonella Typhimurium = assay: microbe, parasite or virus in culture; assay type: cell-based; details: Salmonella enterica, TYPHIMURIUM; aerobe; broth microdilution; individual data from two independent experiments
# Experimental: as §1
# Acinetobacter baumannii = assay type: cell-based; details: aerobe; broth microdilution; individual data from two independent experiments
# Experimental: as §1
# Bacteroides fragilis = assay: microbe, parasite or virus in culture; assay type: cell-based; details: Bacteroides fragilis; anaerobe; broth microdilution; individual data from two independent experiments
# Experimental: as §2
# Fusobacterium nucleatum = assay: MIC, broth microdilution; assay type: cell-based; details: anaerobe, individual data from two independent experiments
# Experimental: as §1
# fungi = assay: Antimicrobial spectrum, fungi; assay type: cell-based
# Experimental: as §1
# E. coli (ATCC25922) = assay: microbe, parasite or virus in culture; assay type: cell-based, Escherichia coli; details: for MIC: Escherichia coli, ATCC25922, broth microdilution, 37°C, 24 or 48 hours, individual data from two independent experiments; for MIC E. coli (ATCC25922): ATCC25922, 48 h
# Experimental: as §2
# [2] = tested on: P. aeruginosa (ATCC27853); assay: MIC, broth microdilution; assay type: cell-based, Pseudomonas aeruginosa; design: MIC P. aeruginosa (ATCC27853): unit not given beside the values; details: 24 or 48 hours, individual data from two independent experiments
# S. aureus (ATCC29213) = assay: microbe, parasite or virus in culture; assay type: cell-based, Staphylococcus aureus; details: broth microdilution, 37°C, 24 or 48 hours, individual data from two independent experiments; for MIC: Staphylococcus aureus, ATCC29213
# Experimental: as §2
# [3] = tested on: interleukin-8 (IL-8) mRNA in NHDFs; assay: IL-8 mRNA expression, real-time RT-PCR; assay type: cell-based, human; details: Wortmannin 100 nM, SR-0379 10 μg/ml
# Experimental: Expression of the human IL-8 mRNA was measured using real-time reverse transcription polymerase chain reaction (RT-PCR). Total RNA was extracted from the tissue samples using ISOGEN reagent (NIPPON GENE, Toyama, Japan). Complementary DNA (cDNA) was synthesized using the Thermo Script RT-PCR System (Invitrogen, Carlsbad, CA). Relative gene-copy numbers for IL-8 mRNA and glyceraldehyde-3-phosphate dehydrogenase (GAPDH) were determined by real-time RT-PCR using TaqMan Gene Expression Assays (IL-8: Hs00174103_m1; GAPDH: 4352934). Absolute gene-copy numbers were normalized to GAPDH using a standard curve.
# pooled rat serum = details: 37°C, up to 60 minutes
# [4] = peptide 500 μg/ml, 37°C, 3 or 10 minutes, acetonitrile/0.1% trifluoroacetate precipitation, HPLC, N = 2 (Fig. 1E)
# Experimental: In vitro stability studies were performed by incubating the peptide with rat or human serum. Human sera (Pool of donors, 5 men and 5 women) were commercially purchased from KAC (Kyoto, Japan), which has been permitted only for experiment. We don't use the human biological specimens without the documented informed consent. Rat sera were collected from rats. The peptide (500 μg/ml) was added to serum (300 μL) and incubated at 37°C. A part of samples (90 μL) were taken, and the proteins were precipitated with acetonitrile containing 0.1% trifluoroacetate (200 μL). The precipitate was separated by centrifugation. The supernatants were analyzed by high-performance liquid chromatography (HPLC).
# [5] = pooled rat serum, 37°C, 10 and 60 minutes, MALDI-TOF MS; major metabolites 20 aa, 18 aa, 17 aa and 12 aa
# Experimental: Rat sera were collected from rats. […] Samples were collected before incubation, after 10 minutes of incubation and after 60 minutes of incubation and were precipitated by the addition of an equivalent amount of acetonitrile containing 0.1% trifluoroacetate. The samples were centrifuged, and the supernatants were purified using ZipTip m-C18 (Millipore, MA). Sample solution was mixed with matrix solution (α-cyano 4-hydroxy cinnamic acid).
compound,measurement,setting,value
CC[n+]1c(/C=C/N(C)c2ccccc2)n(-c2ccccc2)c2ccc(-c3nc4ccccc4s3)cc21.[I-] [Akt inhibitor IV],Effect on SR-0379-induced cell proliferation,NHDFs,attenuated
"C[C@@H]1[C@H](O)[C@@H](C)/C=C/C=C/C=C/C=C/C=C/C=C/C=C/[C@H](O[C@@H]2O[C@H](C)[C@@H](O)[C@H](N)[C@@H]2O)C[C@@H]2O[C@](O)(C[C@@H](O)C[C@@H](O)[C@H](O)CC[C@@H](O)C[C@@H](O)CC(=O)O[C@H]1C)C[C@H](O)[C@H]2C(=O)O [Amphotericin B, reference compound]",MIC,Penicillium glabrum,0.125 µg/mL
same,MIC,Fusarium solani,1 µg/mL
same,MIC,Alternaria alternata,1 µg/mL
same,MIC,[1],0.125 µg/mL
same,MIC,Trichophyton rubrum,0.125 µg/mL
same,MIC,Candida krusei,2 µg/mL
same,Inhibitory activity against bacteria,bacteria,failed to exhibit an inhibitory activity
CCOc1ccc(Nc2ccc(/C(=C3C=C/C(=[N+](/CC)Cc4cccc(S(=O)(=O)[O-])c4)C=C/3C)c3ccc(N(CC)Cc4cccc(S(=O)(=O)O)c4)cc3C)cc2)cc1 [Brilliant Blue G],Inhibition of the effects of SR-0379 by P2X7 antagonist,P2X7,failed to inhibit
"O=C(N[C@H](CO)[C@H](O)c1ccc([N+](=O)[O-])cc1)C(Cl)Cl [Chloramphenicol, reference compound]",MIC,Micrococcus luteus,1 µg/mL
same,MIC,Bacillus subtilis,4 µg/mL
same,MIC,Salmonella Enteritidis,4 µg/mL
same,MIC,Salmonella Typhimurium,4 µg/mL
same,MIC Acinetobacter baumannii,Acinetobacter baumannii,16/32
same,MIC,Bacteroides fragilis,1 µg/mL
same,MIC,Fusobacterium nucleatum,0.25 µg/mL
same,Inhibitory activity against fungi,fungi,failed to exhibit an inhibitory activity
"C[C@@H](O)[C@H]1C(=O)N2C(C(=O)O)=C(S[C@@H]3CN[C@H](C(=O)N(C)C)C3)[C@H](C)[C@H]12 [Meropenem, reference compound]",MIC,E. coli (ATCC25922),0.008 to 0.06 µg/mL
same,MIC,"[2]; Pseudomonas aeruginosa, ATCC27853, 37°C",0.25 to 1 µg/mL
same,MIC,S. aureus (ATCC29213),0.03 to 0.12 µg/mL
Cc1onc(-c2ccccc2)c1C(=O)N[C@@H]1C(=O)N2[C@@H]1SC(C)(C)[C@@H]2C(=O)O [Oxacillin],MIC,S. aureus (ATCC29213),0.12 to 0.5 µg/mL
CO[C@H]1C[C@@H]2CC[C@@H](C)[C@@](O)(O2)C(=O)C(=O)N2CCCC[C@H]2C(=O)O[C@H]([C@H](C)C[C@@H]2CC[C@@H](O)[C@H](OC)C2)CC(=O)[C@H](C)/C=C(\C)[C@@H](O)[C@@H](OC)C(=O)[C@H](C)C[C@H](C)/C=C/C=C/C=C/1C [Rapamycin],Effect on SR-0379-induced cell proliferation,NHDFs,attenuated
"NC[C@H]1O[C@H](O[C@H]2[C@H](O)[C@@H](O[C@H]3O[C@H](CO)[C@@H](O)[C@H](N)[C@H]3O)[C@H](N)C[C@@H]2N)[C@H](N)C[C@@H]1O [Tobramycin, reference compound]",MIC,E. coli (ATCC25922),0.25 to 1 µg/mL
same,MIC,S. aureus (ATCC29213),0.12 to 1 µg/mL
COC[C@H]1OC(=O)c2coc3c2[C@@]1(C)C1=C(C3=O)[C@@H]2CCC(=O)[C@@]2(C)C[C@H]1OC(C)=O [Wortmannin],Effect of pretreatment on SR-0379-induced IL-8 mRNA expression,[3],attenuated
MLKLIFLHRLKRMRKRLKRKLRFWHRKRYK,fragment found,pooled rat serum,"MLKLIFLHRL KRMRKRLKRK (SR-0007), major; also recorded: MLKLIFLHRL KRMRKRLK, major; also recorded: MLKLIFLHRL KRMRKRL, major; also recorded: LHRL KRMRKRLK, major"
MLKLIFLHRLKRMRKRLKRK [SR-0007],MIC E. coli (ATCC25922),E. coli (ATCC25922),64 µg/mL
same,Stability in human serum,[4]; human serum (pool of 5 men and 5 women) 300 μL,rapidly degraded
same,Stability in rat serum,[4]; rat serum 300 μL,rapidly degraded
MLKLIFLHRLKRMRKRLKRKLRLWHRKRYK [AG30/5C],MIC E. coli (ATCC25922),E. coli (ATCC25922),32 µg/mL
same,MIC P. aeruginosa (ATCC27853),[2]; 37°C,16/32
same,MIC S. aureus (ATCC29213),S. aureus (ATCC29213),16/32
same,"Metabolic stability, cleavage in rat serum",[5],cleaved by endopeptidases and exopeptidase at multiple sites
